Assay [1] can be described thus: Bone calcium mobilization (serum calcium) in vitamin D-deficient rats. The class given is in vivo, rat. The note with it: 0.02% Ca diet; for bone calcium mobilization (serum calcium) at 780 pmol: 780 pmol/day for 4 consecutive days; for bone calcium mobilization activity (serum calcium): 4 consecutive ip doses, overall, compared to 1,25(OH)2D3; for bone calcium mobilization (serum calcium) at 87 pmol: 87 pmol/day for 4 consecutive days. The procedure:
(§1) Male, weanling Sprague-Dawley rats were placed on Diet 11 (Suda et al, J. Nutr. 100:1049, 1970) (0.47% Ca)+vitamins AEK for one week followed by Diet 11 (0.02% Ca)+vitamins AEK for 3 weeks. The rats were then switched to the same diet containing 0.47% Ca for one week followed by two weeks on the same diet containing 0.02% Ca. Dose administration began during the last week on 0.02% calcium diet. Four consecutive ip doses were given approximately 24 hours apart. Twenty-four hours after the last dose, blood was collected from the severed neck and the concentration of serum calcium determined by atomic absorption spectrometry as a measure of bone calcium mobilization. The first 10 cm of the intestine was also collected for intestinal calcium transport analysis using the everted gut sac method.

Assay [2] has as its system Human promyelocytic leukemia (HL60) cells. Kind of assay: HL-60 cell differentiation (nitro blue tetrazolium reduction). The note with it: for EC50: 4 days treatment, NBT reduction; for potency on HL-60 cell differentiation compared to 1,25(OH)2D3: in words. The format is cell-based. The procedure:
Serial dilutions were prepared so that a range of drug concentrations could be tested without changing the final concentration of ethanol 0.2%) present in the cell cultures.
Human promyelocytic leukemia (HL60) cells were grown in RPMI-1640 medium containing 10% fetal bovine serum. The cells were incubated at 37° C. in the presence of 5% CO2.
HL60 cells were plated at 1.2×10^5 cells/ml. Eighteen hours after plating, cells in duplicate were treated with drug. Four days later, the cells were harvested and a nitro blue tetrazolium reduction assay was performed (Collins et al., 1979; J. Exp. Med. 149:969-974). The percentage of differentiated cells was determined by counting a total of 200 cells and recording the number that contained intracellular black-blue formazan deposits. Verification of differentiation to monocytic cells was determined by measuring phagocytic activity (data not shown).

A short description of assay [3]: Intestinal calcium transport (everted gut sac method) in vitamin D-deficient rats. The format is in vivo, rat. The note with it: 0.02% Ca diet, 4 consecutive ip doses, compared to 1,25(OH)2D3. The procedure:
as §1

Assay [4] has as its target T1, full-length recombinant rat vitamin D receptor (Rattus norvegicus, UniProt P13053).
T1 construct: Full-length recombinant rat receptor was expressed in E. coli BL21 (DE3) Codon Plus RIL cells; His tag (histidine tag) (C); made in house; host or cells: E. coli BL21 (DE3) Codon Plus RIL
T1 sequence (P13053 1-423): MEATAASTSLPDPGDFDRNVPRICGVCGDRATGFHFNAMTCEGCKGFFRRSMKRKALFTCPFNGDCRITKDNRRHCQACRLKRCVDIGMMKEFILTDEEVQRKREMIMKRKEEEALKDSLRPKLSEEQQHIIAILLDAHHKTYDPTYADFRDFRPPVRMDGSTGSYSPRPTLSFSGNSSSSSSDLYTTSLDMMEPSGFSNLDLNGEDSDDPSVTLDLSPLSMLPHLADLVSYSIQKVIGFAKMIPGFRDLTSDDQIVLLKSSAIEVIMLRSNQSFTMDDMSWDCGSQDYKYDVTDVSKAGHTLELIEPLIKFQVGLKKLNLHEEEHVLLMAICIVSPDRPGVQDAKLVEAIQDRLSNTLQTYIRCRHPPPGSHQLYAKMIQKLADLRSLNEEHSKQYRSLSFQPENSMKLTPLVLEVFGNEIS
As to the kind of experiment: Vitamin D receptor competitive binding with [3H]-1,25(OH)2D3. To be noted: full-length recombinant rat VDR; for Ki: 1 nM radioligand, read-out: Ki, competition with [3H]-1,25(OH)2D3 for binding to the vitamin D receptor; for binding affinity to the receptor compared to 1,25-(OH)2D3: in words.
Method: Full-length recombinant rat receptor was expressed in E. coli BL21 (DE3) Codon Plus RIL cells and purified to homogeneity using two different column chromatography systems. The first system was a nickel affinity resin that utilizes the C-terminal histidine tag on this protein. The protein that was eluted from this resin was further purified using ion exchange chromatography (S-Sepharose Fast Flow). Aliquots of the purified protein were quick frozen in liquid nitrogen and stored at −80° C. until use. For use in binding assays, the protein was diluted in TEDK50 (50 mM Tris, 1.5 mM EDTA, pH7.4, 5 mM DTT, 150 mM KCl) with 0.1% Chaps detergent. The receptor protein and ligand concentration was optimized such that no more than 20% of the added radiolabeled ligand was bound to the receptor.
Radiolabeled and unlabeled ligands were added to 100 mcl of the diluted protein at a final ethanol concentration of ≦10%, mixed and incubated overnight on ice to reach binding equilibrium. The following day, 100 mcl of hydroxylapatite slurry (50%) was added to each tube and mixed at 10-minute intervals for 30 minutes. The hydroxylapaptite was collected by centrifugation and then washed three times with Tris-EDTA buffer (50 mM Tris, 1.5 mM EDTA, pH 7.4) containing 0.5% Titron X-100. After the final wash, the pellets were transferred to scintillation vials containing 4 ml of Biosafe II scintillation cocktail, mixed and placed in a scintillation counter. Total binding was determined from the tubes containing only radiolabeled ligand.

In the case of `C=C1CC(=C)[C@H](O)C/C1=C/C=C1\CCC[C@]2(C)[C@@H]([C@@H](C)CCCC(C)(C)O)CC[C@@H]12` [1D-QMS, (20S)-25-hydroxy-2-methylene-vitamin D3], in assay [1], the “bone calcium mobilization (serum calcium) at 780 pmol” value was “significant mobilization of bone calcium” and the “bone calcium mobilization activity (serum calcium)” value (shortened to “bone calcium mobilization activity”) is reported as “about the same potency as the native hormone”. The compound also returned an EC50 in assay [2] (Homo sapiens, HL-60, 96 h) of 10 nM. Further, the “potency on HL-60 cell differentiation compared to 1,25(OH)2D3” value in assay [2] was “almost as potent as 1,25(OH)2D3”. In assay [3], the “intestinal calcium transport activity” value is given as “about equivalent to 1,25(OH)2D3”. Besides, in assay [4], the Ki is 0.2 nM and the “binding affinity to the receptor compared to 1,25-(OH)2D3” value is “about the same affinity”.
As for `C=C1CC(=C)[C@H](O)C/C1=C/C=C1\CCC[C@]2(C)[C@@H]([C@H](C)CCCC(C)(C)O)CC[C@@H]12` [1D-QM, (20R)-25-hydroxy-2-methylene-vitamin D3], in assay [1], the “bone calcium mobilization (serum calcium) at 87 pmol” value is listed as “little or no mobilization of bone calcium” and the “bone calcium mobilization activity” value was “less potent than the native hormone”. Also, the EC50 in assay [2] (Homo sapiens, HL-60, 96 h) was over 100 nM. In assay [2], the “potency on HL-60 cell differentiation compared to 1,25(OH)2D3” value is recorded as “almost as potent as 1,25(OH)2D3”. Besides, in assay [4], the Ki was determined as 0.9 nM and the “binding affinity to the receptor compared to 1,25-(OH)2D3” value was “about the same affinity”.
Regarding `C=C1/C(=C\C=C2/CCC[C@]3(C)[C@@H]([C@H](C)CCCC(C)(C)O)CC[C@@H]23)C[C@@H](O)C[C@@H]1O` [1α,25-dihydroxyvitamin D3, reference compound], in assay [1], the “bone calcium mobilization (serum calcium) at 87 pmol” value is “significant increases in serum calcium”, the “bone calcium mobilization (serum calcium) at 780 pmol” value is “significant increases in serum calcium” and the “bone calcium mobilization activity” value was “increased serum calcium levels”. In assay [2], this compound returned an EC50 of 3 nM.
